Patent publication US8067422B2, “Crystal form of phenylamino pyrimidine derivatives” (Natco Pharma Limited, priority 2008, dated 2011)

Key:
K562 cells = assay: Anti-CML activity in nude mice implanted with K562 cells (leukemia growth index); type: in vivo; details: ip injections
From the text: Nude mice (nu/nu) were implanted with K562 cells (1×10^6) via tail vein.
Blood was drawn via the tail vein. Quantitative analysis of LGI was graphically represented.

[1] = tested on: Baf3 murine leukemia cells (Wt); assay: Blast cell count in nude mice implanted with Baf3 Wt cells; type: in vivo; details: Baf3Wt; Imatinib 10 mg/kg, AN019 20 mg/kg, AN024 20 mg/kg, oral gavage or ip; day 42
From the text: (§1) Blood smears were obtained via the tail vein or via the femoral vein every 6th day and blast cells counted and graphically represented.
(§2) Abdominal swelling and decrease in activity was monitored daily, blood smear taken via the tail vein or the femoral vein every 6th day and H&E stained as per standard protocols. 42 days after implantation, mice were sacrificed and spleens harvested.
(§3) Nude mice were intraperitoneally implanted with Baf3 mutant cells (wt, T315I, M351T or E255K). […] Blood was drawn from the femoral vein or tail vein every 6th day and blast cell count determined and graphically represented.

[2] = tested on: Baf3 murine leukemia cells (T315I); assay: Blast cell count in nude mice implanted with Baf3 T315I cells; type: in vivo; details: Baf3T315I; Imatinib 10 mg/kg, AN019 20 mg/kg, AN024 20 mg/kg, oral gavage or ip; day 42
From the text: as §1, §2, §3

[3] = tested on: Baf3 murine leukemia cells (M351T); assay: Blast cell count in nude mice implanted with Baf3 M351T cells; type: in vivo; details: Baf3M351T; Imatinib 10 mg/kg, AN019 20 mg/kg, AN024 20 mg/kg, oral gavage or ip; day 42
From the text: as §1, §2, §3

[4] = tested on: Baf3 murine leukemia cells (E255K); assay: Blast cell count in nude mice implanted with Baf3 E255K cells; type: in vivo; details: Baf3 E225K (E255K); Imatinib 10 mg/kg, AN019 20 mg/kg, AN024 20 mg/kg, oral gavage or ip; day 42
From the text: as §1, §2, §3

ZR71 breast cancer cells [5] = assay: Matrigel invasion assay (modified Boyden chamber), ZR-71; type: cell-based; details: ZR-71
Experimental: (§4) The in vitro invasiveness of 4910, 5310 and U87 glioma cells and MDAMB231 and ZR71 breast cancer cells in the presence of specified concentrations of compounds were assessed using a modified Boyden chamber assay. Cells were treated with these compounds for 48 h. 1×10^6 cells were suspended in 600 μl of serum-free medium supplemented with 0.2% BSA and placed in the upper compartment of the transwell chambers (Corning Costar Fischer Scientific Cat #07-200-158, Pittsburgh Pa.) coated with Matrigel (0.7 mg/ml). The lower compartment of the chamber was filled with 200 μl of serum medium and the cells were allowed to migrate for 24 h. After incubation, the cells were fixed and stained with Hema-3 and quantified as previously described (Mohanam et al. 1993). The migrated cells were imaged microscopically to determine the reduction in invasiveness induced by the compounds of this invention.

[6] = tested on: MDAMB231 breast cancer cells; assay: Matrigel invasion assay (modified Boyden chamber), MDA-MB-231; type: cell-based; details: MDA-MB-231
Experimental: as §4

U87 glioma cells [7] = assay: Matrigel invasion assay (modified Boyden chamber), U87; type: cell-based; details: U87
Experimental: as §4

ZR71 breast cancer cells [8] = assay: In vitro angiogenic assay, ZR-71 conditioned media on human dermal endothelial cells; type: cell-based; details: ZR-71 cells; radiation not distinguished
Experimental: (§5) The in vitro angiogenesis of 4910, 5310 and U87 glioma cells and MDAMB231 and ZR71 breast cancer cells in the presence of specified concentrations of compounds were determined as follows, cells (2×10^4/well) were seeded in 8-well chamber slides and were treated with various concentrations of test compounds. After a 24 h incubation period, the conditioned media was removed and added to a 4×10^4 human dermal endothelial cell (monolayer in 8-well chamber slides) and the human dermal endothelial cells were allowed to grow for 72 h. Cells were then fixed in 3.7% formaldehyde and stained with H&E and photographed.

[9] = tested on: MDAMB231 breast cancer cells; assay: In vitro angiogenic assay, MDA-MB-231 conditioned media on human dermal endothelial cells; type: cell-based; details: MDA-MB-231 cells
Experimental: as §5

4910 glioma cells = assay: In vitro angiogenic assay, 4910 conditioned media on human dermal endothelial cells; type: cell-based; details: 4910 cells
Experimental: as §5

5310 glioma cells = assay: In vitro angiogenic assay, 5310 conditioned media on human dermal endothelial cells; type: cell-based; details: 5310 cells
Experimental: as §5

U87 glioma cells [10] = assay: In vitro angiogenic assay, U87 conditioned media on human dermal endothelial cells; type: cell-based
Experimental: as §5

[11] = tested on: AKT, ERK and Pi3k in 5310 glioma cells; assay: Western blot analysis, 5310; type: cell-based
Experimental: (§6) Western blot analysis of 4910, 5310 and U87 glioma cells and MDAMB231 and ZR71 breast cancer cells in the presence of specified concentrations of compounds were assessed as per standard protocols. Cells were treated with AN019, AN024 or Temozolomide at the specified concentrations. 24 h after treatment, cells were collected and cell lysates extracted. Equal quantities of proteins were fractionated by SDS-PAGE. The fractionated proteins were blotted on to nylon membranes and immunoprobed for AKT, ERK and Pi3k. Breast cancer cell protein isolates were additionally immunoprobed for EGFR, ErbB1, ErbB2 and ErbB3.

[12] = tested on: AKT, ERK and Pi3k in ZR71 breast cancer cells; assay: Western blot analysis, ZR71; type: cell-based
Experimental: as §6

[13] = tested on: pAKT and pERK in glioma and breast cancer cells; assay: Western blot analysis, pAKT and pERK (cell line not specified); type: cell-based; details: both with and without radiation
Experimental: as §6

[14] = tested on: K562 luciferase expressing cells; assay: Leukemic survival study in nude mice implanted with K562 luciferase expressing cells; type: in vivo
From the text: K562 luciferase expressing cells were implanted intraperitoneally into nude mice; the mice were scanned using the xenogeny IVIS image station after ip injections of luciferin does determine implantations. Drug treatment was started as in previous studies day 15 after implantation. The animals were given treatment till day 42, after which drug treatment was stopped and survival of the animals determined as per the animal care regulations. […] Drug treatment was withdrawn on day 42 post implantation and survival of animals determined.

[15] = tested on: 4910 human glioma xenograft cells; assay: Glioma radiation study, nude mice intracranially implanted with 4910 cells; type: in vivo
Experimental: Nude mice were intracranially implanted with 4910 human glioma xenograft cells (1×10^6 cells). Ten days after implantation mice were treated with AN019, AN024 or temozolomide with or without radiation (5 Gy/week). The experiment was terminated at day 40 post implantation.

in vivo = details: mouse, po
K562 = assay: ED50 (po) in leukemic mice (K562)

With `Cc1ccc(NC(=O)c2cc(C(F)(F)F)cc(C(F)(F)F)c2)cc1Nc1nccc(-c2cccnc2)n1` [AN019, (3,5-bis trifluoromethyl)-N-[4-methyl-3-(4-pyridin-3yl-pyrimidin-2ylamino)-phenyl]-benzamide] as the molecule, how does the “Physiological, phenotypic or behavioral abnormality” value (K562 cells) read?
The value was “no abnormal physiological, phenotypic or behavioral abnormality”.

What about the “Blast cell count in blood smears” value [1] of the same molecule?
The value was “complete regression of leukemic blast cells”.

What about the “Blast cell count in blood smears” value [2] of the same molecule?
Its value is “significant decrease in blast cell count”.

And the “Blast cell count in blood smears” value [3]?
The value was “significant decrease in blast cell count”.

What about the “Blast cell count in blood smears” value [4] of the same molecule?
Its value is “significant decrease in blast cell count”.

What about the “±Change in invasion after radiation” value (ZR71 breast cancer cells [5]) of the same molecule?
Its value is −14%.

What about the “±Change in invasion after radiation” value [6] of the same molecule?
Its value is −30%.

What about the “±Change in invasion after radiation” value (U87 glioma cells [7]) of the same molecule?
The value was 0%.

What about the Inhibition of angiogenesis (ZR71 breast cancer cells [8]) of the same molecule?
The Inhibition of angiogenesis was “complete inhibition of angiogenesis”.

And the Inhibition of angiogenesis ([9]; after radiation)?
The Inhibition of angiogenesis was “slight inhibition”.

What about the Inhibition of angiogenesis ([9]; control condition (without radiation)) of the same molecule?
The Inhibition of angiogenesis was “slight inhibition”.

And the Inhibition of angiogenesis (4910 glioma cells; after radiation)?
The Inhibition of angiogenesis was “increase in angiogenic inhibition”.

What about the Inhibition of angiogenesis (4910 glioma cells; without radiation) of the same molecule?
Its Inhibition of angiogenesis is “inhibition of angiogenesis similar to MDA-MB-231 cells”.

What about the Inhibition of angiogenesis (5310 glioma cells; after radiation) of the same molecule?
The Inhibition of angiogenesis was “inhibition of angiogenesis was greater in control conditions than after radiation treatment”.

What about the Inhibition of angiogenesis (5310 glioma cells; control conditions (without radiation)) of the same molecule?
The Inhibition of angiogenesis was “inhibition of angiogenesis was greater in control conditions than after radiation treatment”.

What about the Inhibition of angiogenesis (U87 glioma cells [10]; after radiation) of the same molecule?
The Inhibition of angiogenesis was “significant retardation in angiogenesis”.

And the Inhibition of angiogenesis (U87 glioma cells [10]; without radiation)?
The Inhibition of angiogenesis was “significant retardation in angiogenesis”.

And the “AKT expression levels (Western blot)” value [11]; 5310?
The value was “decrease in AKT expression levels”.

What about the “PI3k levels (Western blot)” value ([11]; 5310, after radiation) of the same molecule?
Its value is “reappeared after radiation treatment”.

And the “PI3k levels (Western blot)” value ([11]; 5310, without radiation)?
Its value is “almost undetectable”.

What about the “AKT levels (Western blot)” value ([12]; ZR71, after radiation) of the same molecule?
The value was “enhanced after radiation”.

What about the “AKT levels (Western blot)” value ([12]; ZR71, unirradiated) of the same molecule?
The value was “decrease in AKT levels”.

What about the “PI3k levels (Western blot)” value ([12]; ZR71, with radiation) of the same molecule?
The value was “absent”.

And the “PI3k levels (Western blot)” value ([12]; ZR71, without radiation)?
Its value is “absent”.

What about the “pERK levels (Western blot)” value [13] of the same molecule?
Its value is “reduced significantly”.

What about the “Blast cell count from blood smears, effectiveness after withdrawal of drug treatment” value ([14]; drug treatment withdrawn on day 42) of the same molecule?
The value was “showed effectiveness after withdrawal of drug treatment”.

What about the Mortality ([14]; treatment day 15 to day 42, then withdrawn, 10 animals) of the same molecule?
The Mortality was “did not show any mortality”.

What about the “Intracranial tumour size and appearance” value ([15]; with radiation (5 Gy/week)) of the same molecule?
Its value is “tumor size was significantly reduced”.

What about the “Intracranial tumour size and appearance” value ([15]; without radiation) of the same molecule?
The value was “tumours similar to AN024 treated animals”.

What about the LD50 (in vivo) of the same molecule?
Its LD50 is 1130 mg/kg.

And the “Therapeutic index - LD50/ED50” value (K562; Leukemic mice (K562))?
Its value is 98.5.

What about the ED50 (K562; Mus musculus, K562, po, read-out: ED50 (po) Mice) of the same molecule?
Its ED50 is 11.5 mg/kg.
